One compound from US20060013804A1, “Modulation of stem cell differentiation by modulation of caspase-3 activity” (Ottawa Health Research Institute, priority 2002, published 2006) can be followed below.

The subject of one assay is MST1. Kind of assay: Proteolysis of in vitro translated 35S-methionine labelled MST1 by C2C12 lysates. The class given is biochemical, human. As to conditions: 35S-labelled MST1 incubated with lysates of inhibitor-treated C2C12 cells. As to the method:
Transfection Assays. The complete open reading frame of the human MST1, [Genbank Accession No. gi|1117790] obtained from a clone bank collection (Stratagene) was inserted into the expression vector pcDNA3.1 Myc/His (Invitrogen). A constitutively active MST1 (MST1-act) was prepared as previously described (Megeney, L. A., et al., (1996) Genes Dev 10, 1173-1183). The integrity of both MST1 and MST1-act were confirmed by sequencing. The kinase activity of these protein products were verified by transient transfection into COS1 cells followed by immunoprecipitation and kinase analysis using Histone-H1 as the target substrate (see below). Transfections with MST1 and MST1-act into both COS1 and primary myoblasts were performed using Lipofectamine Plus (Gibco) as directed in the manufacturer's instructions.
In vitro translation and MST1 proteolysis. MST1-pcDNA3.1 Myc/His was in vitro transcribed and translated using a TnT T7 Coupled Wheat Germ Extract System (Promega). The labelling efficiency was verified by SDS-PAGE, Coomassie-staining and autoradiography. […] The proteolytic cleavage of MST1 was assessed by SDS-PAGE and autoradiography.
One kinase that was altered in activity co-migrated with a predicted pI (5.2) and molecular weight (36 kDa) consistent with Mammalian Sterile Twenty-like kinase (MST1). […]

For assay [1], the system named is primary striatal stem cells (neurospheres). Kind of assay: Primary striatal neurospheres with or without caspase-3 inhibitor, immunostaining for neural lineage markers. The class given is cell-based, mouse. The following applies: 1 μM inhibitor. Here is the method: After sacrificing, the abdomen was sprayed with 70% ethanol. A 2 cm incision is made vertically up the abdomen. The horn was removed with sterile tweezers, and placed in PBS. The horn was cut open the horn to expose one embryo at a time and each embryo was placed in a separate 35 mm tissue culture dish containing 2 ml PBS. Each embryo was pinned to the dish and the cortex peeled off layer by layer to expose the striatum, which was then removed. The striatal tissue was placed in a 50 ml Falcon Tube containing cold Hank's Balanced Salt Solution (HBSS) on ice and the tissue allowed to settle at the bottom of the tube. The HBSS was replaced with 2 ml of Complete Neurocult Proliferation Media and the tissue triturated gently until only a few fragments of tissue remained. The supernatant was then collected and the fragments of tissue were triturated in 1 ml media. The supernatant was again removed and stored with the first supernatant that was collected.
At this point the number of cells can be counted using an aliquot of Trypan Blue (1/5 dilution). Cells were seeded at a density of 1 million cells per 25 ml of Complete Proliferation Media and grown in Complete Neurocult Proliferation Media for 4 days, at which time they were expanded if the plates appeared too confluent. If expansion was not necessary, the cells were allowed to grow for a few more days prior to harvesting. To expand the primary culture, half the cell suspension was placed in a new dish and 12.5 ml of Complete Proliferation Media was added to each of the initial plate and the expanded plate. After a few days, once most of the spheres had lifted off the dish, the sphere suspension was confluent. At this time, cells were either passaged in growth media, frozen, or plated onto a differentiation plate.
Plating and Differentiation of Striatal Stem Cells: In order to differentiate neurospheres, they must be plated onto a surface coated with Laminin and Poly-D-Lysine. The sphere suspension was collected from a 10 cm dish, placed in a 50 ml tube and centrifuged at 500 rpm for 5 min at 4° C. The supernatant was aspirated and discarded, then 2 ml of Complete Neurocult Proliferation Media was added and the sphere pellet gently triturated until the spheres were resuspended. The sphere suspension was then diluted in Complete Neurocult Proliferation Media to obtain the desired concentration (one 10 cm dish of neurospheres is appropriate for approximately 4 coated chamber slides). 2 ml aliquots of sphere suspension were plated per chamber and after a few hours at 37° C., the medium was changed to Complete Neurocult Differentiation media.
Paraformaldehyde (PFA) Fixing of Cells: Freshly made 4% PFA was used. Media was aspirated out of wells and each well was washed with 2 ml PBS for 3 min. […]

Take `COC(=O)CC[C@H](NC(=O)[C@H](CC(=O)OC)NC(=O)OCc1ccccc1)C(=O)N[C@H](C(=O)N[C@@H](CC(=O)OC)C(=O)CF)C(C)C` [z-DEVD.fmk]: in the assay with MST1, the “36 kDa MST1 cleavage fragment” value is “not apparent”. The “36 kDa MST1 cleavage fragment” value in the assay with MST1 (listed as caspase-3 inhibitor) is “absent in caspase-3 inhibited samples”. For the same compound, in assay [1] (48 h differentiation), the “glial fibrillary acid protein staining (astrocytes)” value is listed as “showed no staining for astrocytes”, the “myelin basic protein staining (oligodendricytes)” value was “did not stain positive for oligodendricytes” and the “nestin staining after differentiation” value was “retain their undifferentiated lineage as demonstrated by the presence of nestin”. Further, the “cell cycling (nestin staining during proliferation)” value in assay [1] (proliferating striatal stem cells) is “does not have an effect on cell cycling”.
